Patent publication US8012944B2, “Method for treating cancer using IAP antisense oligomer and chemotherapeutic agent” (Pharmascience Inc., priority 2003, dated 2011)
Oligonucleotides are written 5' to 3', each unit as a sugar letter and its base; * is a phosphorothioate linkage, no mark a phosphodiester; rarer units and linkages stand in square brackets, end groups in braces. Plain capitals give the bases only. d = 2'-deoxy (DNA); m = 2'-O-methyl

How the values were obtained:
XIAP mRNA [1] = experiment: XIAP mRNA knock-down in H460 cells (real-time RT-PCR / TaqMan); format: cell-based, human
Experimental: RNA was extracted from cells lysed in RLT buffer (QIAGEN, Valencia, Calif.), and purified using QIAGEN RNeasy columns/kits. Real-time quantitative PCR was performed on a Perkin-Elmer ABI 7700 Prism PCR machine. RNA was reverse transcribed and amplified according to the TaqMan Universal PCR Master Mix protocol of PE Biosystems, using primers and probes designed to specifically recognize XIAP, HIAP1, survivin, or GAPDH. For human survivin, the forward primer was 5′-[…]-3′ (SEQ ID NO: 263), the reverse primer was 5′-GAAAGGAAAGCGCAACCG-3′ (SEQ ID NO: 264), and the probe was 5′-(FAM)[…](TAMRA)-3′ (SEQ ID NO: 265). For human HIAP1, the forward primer was 5′-[…]-3′ (SEQ ID NO: 266), the reverse primer was 5′-[…]-3′ (SEQ ID NO: 267), and the probe was 5′-(FAM)[…](TAMRA)-3′ (SEQ ID NO: 268). For human XIAP, the forward primer was 5′-[…]-3′ (SEQ ID NO: 269), the reverse primer was 5′-[…]-3′ (SEQ ID NO: 270), and the probe was 5′-(FAM)[…](TAMRA)-3′ (SEQ ID NO: 271). For human GAPDH, the forward primer was 5′-GAAGGTGAAGGTCGGAGTC-3′ (SEQ ID NO: 272), the reverse primer was 5′-GAAGATGGTGATGGGATTC-3′ (SEQ ID NO: 273), and the probe was 5′-(JOE)[…](TAMRA)-3′ (SEQ ID NO: 274). FAM is 6-carboxyfluoroscein, JOE is 6-carboxy-4,5-dichloro-2,7-dimethoxyfluoroscein, and TAMRA is 6-carboxy-N,N,N′,N′-tetramethylrhodamine. FAM and JOE are 5′ reporter dyes, while TAMRA is a 3′ quencher dye.
Relative quantification of gene expression was performed as described in the PE Biosystems manual using GAPDH as an internal standard. The comparative Ct (cycle threshold) method was used for relative quantitation of IAP mRNA levels compared to GAPDH mRNA levels. Briefly, real-time fluorescence measurements were taken at each PCR cycle and the threshold cycle (Ct) value for each sample was calculated by determining the point at which fluorescence exceeded a threshold limit of 30 times the baseline standard deviation. The average baseline value and the baseline SD are calculated starting from the third cycle baseline value and stopping at the baseline value three cycles before the signal starts to exponentially rise. The PCR primers and/or probes for the specific IAPs were designed to span at least one exon-intron boundary separated by 1 kb or more of genomic DNA, to reduce the possibility of amplifying and detecting genomic DNA contamination. The specificity of the signal, and possible contamination from DNA, were verified by treating some RNA samples with either DNase or RNase, prior to performing the reverse transcription and PCR reaction steps.
A portion of the 96 nucleobase oligomers depicted in Table 2 were rescreened for their ability to knock-down XIAP mRNA in NCI-H460 cells at […] post-transfection.
One day prior to transfection, H460 cells were plated in 6- or 96-well tissue culture plates. Phosphorothioate antisense oligonucleotides were delivered into cells with Lipofectamine 2000 (Life Technologies) in the form of liposome-oligonucleotide complexes. Following a 4.5 or 6 h transfection, the transfection medium was replaced with RPMI medium containing 10% FBS, and the cells incubated for another 24 or 48 h.
Total RNA from H460 cells treated with liposome-oligonucleotide complexes for 6 hours was immediately isolated using RNeasy mini spin columns and DNase treatment (QIAGEN, Valencia, Calif.). Specific XIAP mRNA was measured using a real-time quantitative RT-PCR method. […]

XIAP mRNA [2] = experiment: as above; format: cell-based, human; details: 2 × 2 MBO; NCI-H460 cells, 9 hours post-transfection; relative level (mock control 1.01)

Row | Substance | XIAP down-regulation H460 RNA (XIAP mRNA [1]) [%] | XIAP RNA (XIAP mRNA [2])
1 | AAAATTCTAAGTACCTGCA (mA*mAdAdAdTdTdCdTdAdAdGdTdAdCdCdTdGmC*mA; antisense) [Code A1] | 48 | 0.46
2 | AAAGCATAAAATCCAGCTC (antisense; sugars from the 5' end m2 d15 m2, backbone, methylation of C and T or U not given here; further chemistry not fully specified) [Code C8] | 16 | 1.01
3 | AAGCAGTGCACTTGGTCAC (antisense; sugars from the 5' end m2 d15 m2, linkages s1 o16 s1 (s phosphorothioate, o phosphodiester), methylation of C not given here) [Code G6] | 69 | 
4 | AAGCTTCTCCTCTTGCAGG (antisense; sugars from the 5' end m2 d15 m2, linkages s1 o16 s1 (s phosphorothioate, o phosphodiester), methylation of C not given here) [Code F10] | 51 | 0.64
5 | AAGTAAAGATCCGTGCTTC (antisense; sugars from the 5' end m2 d15 m2, backbone, methylation of C and T or U not given here; further chemistry not fully specified) [Code H7] | 63 | 0.49
6 | AAGTCAGTTCACATCACAC (antisense; sugars from the 5' end m2 d15 m2, linkages s1 o16 s1 (s phosphorothioate, o phosphodiester), methylation of C not given here) [Code F11] | 64 | 0.36
7 | AATGTGAAACACAAGCAAC (antisense AANGNGAAACACAAGCAAC; sugars from the 5' end m2 d15 m2, linkages s1 o16 s1 (s phosphorothioate, o phosphodiester), the base at N not given here) [Code C3] | 43 | 0.55
8 | ACACGACCGCTAAGAAACA (antisense ACACGACCGCNAAGAAACA; sugars from the 5' end m2 d15 m2, linkages s1 o16 s1 (s phosphorothioate, o phosphodiester), the base at N not given here) [Code H2] | 46 | 0.56
9 | ACAGGACTACCACTTGGAA (antisense; chemistry not fully specified) [Code B4] | 76 | 
10 | ACATAGTGTTTTGCCACTT (antisense; sugars from the 5' end m2 d15 m2, backbone, methylation of C and T or U not given here; further chemistry not fully specified) [Code F12] | 74 | 0.26
11 | ACATTATATTAGGAAATCC (mA*mCdAdTdTdAdTdAdTdTdAdGdGdAdAdAdTmC*mC; antisense) [Code D3] | 30 | 0.68
12 | ACTGGGCTTCCAATCAGTT (antisense; sugars from the 5' end m2 d15 m2, backbone, methylation of C and T or U not given here; further chemistry not fully specified) [Code H8] |  | 0.61
13 | AGATGGTATCATCAATTCT (antisense; sugars from the 5' end m2 d15 m2, backbone, methylation of C and T or U not given here; further chemistry not fully specified) [Code F9] | 19 | 0.97
14 | AGCACATGGGACACTTGTC (antisense; sugars from the 5' end m2 d15 m2, backbone, methylation of C and T or U not given here; further chemistry not fully specified) [Code B11] | 63 | 0.39
15 | AGCACATTGTTTACAAGTG (antisense; sugars from the 5' end m2 d15 m2, backbone, methylation of C and T or U not given here; further chemistry not fully specified) [Code A11] | 68 | 0.36
16 | AGTATGAAATATTTCTGAT (antisense; sugars from the 5' end m2 d15 m2, backbone and T or U not given here; further chemistry not fully specified) [Code E1] | 69 | 0.31
17 | AGTTCTCAAAAGATAGTCT (antisense; sugars from the 5' end m2 d15 m2, backbone and T or U not given here; further chemistry not fully specified) [Code G5] | 30 | 0.68
18 | ATATTTCTATCCATACAGA (antisense; sugars from the 5' end m2 d15 m2, backbone, methylation of C and T or U not given here; further chemistry not fully specified) [Code G10] | 56 | 0.49
19 | ATGATCTCTGCTTCCCAGA (antisense; sugars from the 5' end m2 d15 m2, backbone and T or U not given here; further chemistry not fully specified) [Code E5] | 46 | 0.52
20 | ATTATTTTCTTAATGTCCT (antisense; sugars from the 5' end m2 d15 m2, backbone, methylation of C and T or U not given here; further chemistry not fully specified) [Code A10] | 29 | 0.85
21 | ATTCAAGGGATCAAAGTTG (antisense; sugars from the 5' end m2 d15 m2, backbone and T or U not given here; further chemistry not fully specified) [Code A2] | 58 | 0.42
22 | ATTCAATCAGGGTAATAAG (antisense; sugars from the 5' end m2 d15 m2, backbone, methylation of C and T or U not given here; further chemistry not fully specified) [Code E11] | 48 | 0.52
23 | ATTCGCACAAGTACGTGTT (antisense; sugars from the 5' end m2 d15 m2, backbone, methylation of C and T or U not given here; further chemistry not fully specified) [Code D12] | 77 | 0.23
24 | ATTGGTTCCAATGTGTTCT (antisense; chemistry not fully specified) [Code F1] | 81 | 
25 | CAGATATATATGTAACACT (antisense; sugars from the 5' end m2 d15 m2, backbone and T or U not given here; further chemistry not fully specified) [Code C1] | 66 | 0.3
26 | MAmUGACCACTTCCTCTATmGmG (ANGACCACNNCCNCNANGG; 2'-O-methyl modifications, chemistry not fully specified) [DE4 rev, reference compound] |  | 1.06
27 | TATCCACTTATGACATAAA (antisense; chemistry not fully specified) [Code A3] | 27 | 
